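Tested at 5 concentrations; 48 h exposure; 96-well plates; endpoints linearly interpolated, else capped at highest concentration. The concentration for 50% growth inhibition is given as GI50. TGI: total growth inhibition.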
What was measured:
Assay in all cases: NCI-60 cell line screen, 48 h
[1] = tested on: OVCAR-5 ovarian
[2] = tested on: SK-MEL-28 melanoma
[3] = tested on: NCI-H522 lung
[4] = tested on: HL-60(TB) leukemia
[5] = tested on: OVCAR-8 ovarian
[6] = tested on: RXF 393 renal
[7] = tested on: NCI-H460 lung
[8] = tested on: BT-549 breast
[9] = tested on: PC-3 prostate
[10] = tested on: HS 578T breast

CC[O-].CC[O-].O=C1C=C([O-])C(=O)c2ccccc21.O=C1C=C([O-])C(=O)c2ccccc21.[Ti+4]
GI50 [1]: > 100 µM
TGI [1]: > 100 µM
GI50 [2]: > 100 µM
TGI [2]: > 100 µM
GI50 [3]: > 40.1 µM
TGI [3]: > 100 µM
GI50 [4]: 7.22 µM
TGI [4]: > 100 µM
GI50 [5]: > 100 µM
TGI [5]: > 100 µM
GI50 [6]: > 100 µM
TGI [6]: > 100 µM
GI50 [7]: 7.76 µM
TGI [7]: > 92.9 µM

CO/N=C(/C)COc1ccc2c(c1)oc(=O)c1cc(OC)ccc12
GI50 [1]: > 100 µM
TGI [1]: > 100 µM
GI50 [2]: > 100 µM
TGI [2]: > 100 µM
GI50 [8]: > 100 µM
TGI [8]: > 100 µM
GI50 [3]: > 100 µM
TGI [3]: > 100 µM
GI50 [9]: > 100 µM
TGI [9]: > 100 µM
GI50 [5]: > 100 µM
TGI [5]: > 100 µM
GI50 [6]: > 100 µM
TGI [6]: > 100 µM
GI50 [10]: > 100 µM
TGI [10]: > 100 µM
GI50 [7]: > 100 µM
TGI [7]: > 100 µM

O=C(/C=C(/C=C/c1cccc2[nH]ccc12)OB(F)F)/C=C/c1cccc2[nH]ccc12
GI50 [1]: 1.42 µM
TGI [1]: 3.59 µM
GI50 [2]: 1.04 µM
TGI [2]: 2.73 µM
GI50 [8]: 1.03 µM
TGI [8]: 4.09 µM
GI50 [3]: 0.359 µM
TGI [3]: 2.24 µM
GI50 [4]: 0.641 µM
TGI [4]: 7.23 µM
GI50 [9]: 0.815 µM
TGI [9]: 3.41 µM
GI50 [5]: 0.347 µM
TGI [5]: > 100 µM
GI50 [10]: 1.5 µM
TGI [10]: > 100 µM
GI50 [7]: 0.684 µM
TGI [7]: 2.91 µM

CC1(C)N=C(N)N=C(N)N1c1ccc(OCC(=O)Nc2ccc(S(=O)(=O)F)cc2Cl)c(Cl)c1
GI50 [1]: > 100 µM
TGI [1]: > 100 µM
GI50 [2]: 37.6 µM
TGI [2]: > 100 µM
GI50 [8]: 58.4 µM
TGI [8]: > 100 µM
GI50 [3]: 7.09 µM
TGI [3]: > 100 µM
GI50 [4]: 1.46 µM
TGI [4]: > 100 µM
GI50 [9]: 0.65 µM
TGI [9]: > 100 µM
GI50 [5]: 7.79 µM
TGI [5]: > 100 µM
GI50 [6]: 17.5 µM
TGI [6]: > 100 µM
GI50 [7]: 0.591 µM
TGI [7]: > 100 µM

CSC1=CC(=O)c2ccccc2C1=O
GI50 [1]: 17.4 µM
TGI [1]: 34.2 µM
GI50 [2]: 11.1 µM
TGI [2]: 23.8 µM
GI50 [8]: 11.6 µM
TGI [8]: 23.8 µM
GI50 [3]: 2.02 µM
TGI [3]: 4.16 µM
GI50 [4]: 1.87 µM
TGI [4]: 4.33 µM
GI50 [9]: 2.54 µM
TGI [9]: 12.5 µM
GI50 [5]: 3.58 µM
TGI [5]: 15 µM
GI50 [6]: 1.54 µM
TGI [6]: 2.9 µM
GI50 [7]: 31.3 µM
TGI [7]: > 100 µM

CNC(=O)/C=C/C1=CN2C(=O)c3ccc(C)c(O)c3NC(OC)C2C1 (centres undefined)
TGI [1]: > 31 µM
TGI [2]: < 0.0131 µM
TGI [3]: < 0.0169 µM
TGI [4]: 0.865 µM
TGI [9]: 0.447 µM
TGI [5]: 0.192 µM
TGI [6]: < 0.01 µM
TGI [10]: < 0.0264 µM
TGI [7]: 1.03 µM

CC(=O)OCc1nnn2c1C(OC(C)=O)CC2 (centres undefined)
TGI [1]: > 100 µM
TGI [2]: > 100 µM
TGI [3]: > 100 µM
TGI [5]: > 100 µM
TGI [6]: > 100 µM
TGI [7]: > 100 µM

CC1=C2CC[C@@]3(C)C(=CCC3O)C2(C)CCC1=O (some centres undefined)
TGI [1]: > 100 µM
TGI [2]: > 100 µM
TGI [3]: > 100 µM
TGI [4]: > 100 µM
TGI [5]: > 100 µM
TGI [6]: > 100 µM
TGI [7]: > 100 µM

COc1cccc(C(=O)NNc2nc(Cl)nc(N3CCN(C(c4ccccc4)c4ccccc4)CC3)n2)c1
GI50 [1]: 16.3 µM
TGI [1]: 40 µM
GI50 [2]: 2.21 µM
TGI [2]: 5.38 µM
GI50 [8]: 1.63 µM
TGI [8]: 3.31 µM
GI50 [4]: 6.29 µM
TGI [4]: 43.9 µM
GI50 [5]: 2.02 µM
TGI [5]: 4.53 µM
GI50 [6]: 2.7 µM
TGI [6]: 8.28 µM
GI50 [10]: 1.95 µM
TGI [10]: 4.9 µM
GI50 [7]: 3.26 µM
TGI [7]: 12 µM

O=C(Cc1cc(O)ccc1O)NO
GI50 [1]: 18.7 µM
TGI [1]: 34.1 µM
GI50 [8]: 85.7 µM
TGI [8]: > 100 µM
GI50 [3]: 91.7 µM
TGI [3]: > 100 µM
GI50 [9]: > 100 µM
TGI [9]: > 100 µM
GI50 [5]: > 100 µM
TGI [5]: > 100 µM
GI50 [6]: 71.7 µM
TGI [6]: > 100 µM
GI50 [10]: > 100 µM
TGI [10]: > 100 µM
GI50 [7]: 89.8 µM
TGI [7]: > 100 µM

CCOC(=O)C(C(=O)OCC)=C1C=C(c2ccccc2)c2ccccc21
TGI [1]: > 100 µM
TGI [2]: > 100 µM
TGI [4]: 92 µM
TGI [5]: > 100 µM
TGI [6]: > 100 µM
TGI [7]: > 100 µM

Cc1ccc(NC(=S)NNC(=S)Nc2ccc(C)cc2)cc1
GI50 [1]: > 100 µM
TGI [1]: > 100 µM
GI50 [2]: 8.39 µM
TGI [2]: > 100 µM
GI50 [8]: > 100 µM
TGI [8]: > 100 µM
GI50 [3]: 2.03 µM
TGI [3]: 5.83 µM
GI50 [9]: 10.2 µM
TGI [9]: > 100 µM
GI50 [5]: 7.95 µM
TGI [5]: > 100 µM
GI50 [6]: 5.56 µM
TGI [6]: > 100 µM
GI50 [10]: 4.6 µM
TGI [10]: > 100 µM
GI50 [7]: 3.89 µM
TGI [7]: > 100 µM

CC(C)C[C@H](NC(=O)[C@@H](Cc1ccccc1)n1ccc(Nc2ccccc2)cc1=O)B(O)O
GI50 [1]: 1.7 µM
TGI [1]: 8.34 µM
GI50 [2]: 0.349 µM
TGI [2]: 2.98 µM
GI50 [8]: 0.289 µM
TGI [8]: 2.35 µM
GI50 [3]: 0.242 µM
TGI [3]: 0.821 µM
GI50 [9]: 2.25 µM
TGI [9]: 19.6 µM
GI50 [5]: 1.88 µM
TGI [5]: 74.6 µM
GI50 [6]: 0.234 µM
TGI [6]: 0.564 µM
GI50 [10]: 0.361 µM
TGI [10]: 7.06 µM
GI50 [7]: 0.836 µM
TGI [7]: 8.29 µM

COC(=O)C1C(C(=O)O)C2(c3ccccc3)C(=O)C1(c1ccccc1)C(c1ccc(OC)cc1)=C2c1ccc(OC)cc1 (centres undefined)
GI50 [1]: 20.8 µM
TGI [1]: 45.9 µM
GI50 [8]: 15.8 µM
TGI [8]: 33.6 µM
GI50 [3]: 17 µM
TGI [3]: 41.9 µM
GI50 [9]: 13 µM
TGI [9]: 31.3 µM
GI50 [5]: 15.9 µM
TGI [5]: 30.8 µM
GI50 [6]: 16.1 µM
TGI [6]: 34.8 µM
GI50 [10]: 22.1 µM
TGI [10]: 72.3 µM
GI50 [7]: 13.7 µM
TGI [7]: 31 µM

COc1ccc2nc3cc([N+](=O)[O-])ccc3c(NCCO)c2c1
GI50 [1]: 5.55 µM
TGI [1]: 28.1 µM
GI50 [2]: 5.41 µM
GI50 [8]: 2.88 µM
TGI [8]: 7.02 µM
GI50 [3]: 1.39 µM
TGI [3]: 2.84 µM
GI50 [4]: 3.03 µM
TGI [9]: 30 µM
GI50 [5]: 3.15 µM
TGI [5]: 18.8 µM
GI50 [10]: 2.94 µM
TGI [10]: 26.2 µM
GI50 [7]: 1.66 µM
TGI [7]: 4.9 µM

CCCCCCCCCCCCCCCC(=O)NS(=O)(=O)OC[C@H]1O[C@@H](n2cnc3c(N)ncnc32)[C@H](O)[C@@H]1O
GI50 [1]: < 0.0158 µM
TGI [1]: < 0.0339 µM
TGI [2]: 1.66 µM
GI50 [3]: 0.0479 µM
TGI [3]: 0.427 µM
GI50 [4]: 0.454 µM
TGI [4]: 4.72 µM
TGI [9]: < 0.0166 µM
GI50 [5]: 0.3 µM
TGI [5]: 1.28 µM
GI50 [6]: < 0.0161 µM
TGI [6]: < 0.0284 µM
GI50 [10]: 0.982 µM
TGI [10]: 6.04 µM
GI50 [7]: 0.107 µM
TGI [7]: 8.6 µM
